Paper PMC7935272 (PLoS Pathogens, 2021)
Read-outs that look alike come from different tables or passages of the source.

Legend:
MeV [1] = test: Cell-based anti-MeV assays of earlier work
MeV [2] = conditions: cited from earlier work; for IC50: Figure 7A source data; for EC50: experimental activity, read-out: EC50
[3] = cited from earlier work
[4] = −log10(EC50) of literature EC50

SMILES | IC50 (MeV [1]; Figure 7A source data) [µM] | IC50 (MeV [1]; [4]) [µM] | IC50 (MeV [2]) [µM] | EC50 (MeV [2]) [µM] | CC50 [3] [µM]
Cn1nc(C(F)(F)F)cc1C(=O)Nc1ccc(S(=O)(=O)N2CCCCC2CO)cc1 (centres unmarked) [28c, S(=O)(=O)(N1C(CO)CCCC1)c1ccc(NC(=O)c2n(C)nc(C(F)(F)F)c2)cc1] | 0.85 | 0.851 | 0.85 | 0.85 | –
Cn1cc(C(F)(F)F)cc1C(=O)Nc1ccc(S(=O)(=O)N2CCCCC2)cc1 [15a, S(=O)(=O)(N1CCCCC1)c1ccc(NC(=O)c2n(C)cc(C(F)(F)F)c2)cc1] | 0.014 | 0.014 | 0.014 | 0.014 | > 300
O=C(Nc1ccc(S(=O)(=O)N2CCCC2)cc1)c1nccn1-c1ccccc1C(F)(F)F [MS-12, S(=O)(=O)(N1CCCC1)c1ccc(NC(=O)c2n(-c3c(C(F)(F)F)cccc3)ccn2)cc1] | 65 | 65 | 65 | 65 | > 300
Cn1nc(C(F)(F)F)cc1C(=O)Cc1ccc(S(=O)(=O)N2CCCC2)cc1 [MS-26, S(=O)(=O)(N1CCCC1)c1ccc(CC(=O)c2n(C)nc(C(F)(F)F)c2)cc1] | 15.5 | 15.5 | 15.5 | 15.5 | > 300
CN(C)S(=O)(=O)c1ccc(NC(=O)c2cc(C(F)(F)F)cn2C)cc1 [15m, S(=O)(=O)(N(C)C)c1ccc(NC(=O)c2n(C)cc(C(F)(F)F)c2)cc1] | 6.3 | 6.31 | 6.3 | 6.3 | > 300
C=CCN(CC=C)S(=O)(=O)c1ccc(NC(=O)c2cc(C(F)(F)F)cn2C)cc1 [15r, S(=O)(=O)(N(CC=C)CC=C)c1ccc(NC(=O)c2n(C)cc(C(F)(F)F)c2)cc1] | 3.3 | 3.3 | 3.3 | 3.3 | 34
CC1CCCCN1S(=O)(=O)c1ccc(NC(=O)c2cc(C(F)(F)F)cn2C)cc1 (centres unmarked) [15b, S(=O)(=O)(N1C(C)CCCC1)c1ccc(NC(=O)c2n(C)cc(C(F)(F)F)c2)cc1] | 0.029 | 0.029 | 0.0289 | 0.028 | > 300
Cn1nc(C(F)(F)F)cc1C(=O)Nc1ccc(S(=O)(=O)N2CCCC2)cc1 [compound 16677, S(=O)(=O)(N1CCCC1)c1ccc(NC(=O)c2n(C)nc(C(F)(F)F)c2)cc1] | 0.24 | 0.24 | 0.239 | 0.23 | > 300
Cn1nc(C(F)(F)F)cc1C(=O)Nc1ccc(S(=O)(=O)c2ccccc2)cc1 [3a, S(=O)(=O)(c1ccc(NC(=O)c2n(C)nc(C(F)(F)F)c2)cc1)c1ccccc1] | 0.09 | 0.0902 | 0.09 | 0.09 | > 100
CCN(CC)S(=O)(=O)c1ccc(NC(=O)c2cc(C(F)(F)F)cn2C)cc1 [15n, S(=O)(=O)(N(CC)CC)c1ccc(NC(=O)c2n(C)cc(C(F)(F)F)c2)cc1] | 0.019 | 0.019 | 0.0189 | 0.018 | > 300
COc1ccccc1S(=O)(=O)c1ccc(NC(=O)c2cc(C(F)(F)F)nn2C)cc1 [3b, S(=O)(=O)(c1c(OC)cccc1)c1ccc(NC(=O)c2n(C)nc(C(F)(F)F)c2)cc1] | 3.1 | 3.1 | 3.09 | 3 | > 100
CC(=O)Oc1ccccc1S(=O)(=O)c1ccc(NC(=O)c2cc(C(F)(F)F)nn2C)cc1 [3d, S(=O)(=O)(c1c(OC(=O)C)cccc1)c1ccc(NC(=O)c2n(C)nc(C(F)(F)F)c2)cc1] | 4.5 | 4.51 | 4.5 | 4.5 | > 100
Cn1nc(C(F)(F)F)cc1C(=O)Nc1ccc(S(=O)(=O)N2CCCC[C@H]2CCO)cc1 [2k, S(=O)(=O)(N1[C@H](CCO)CCCC1)c1ccc(NC(=O)c2n(C)nc(C(F)(F)F)c2)cc1] | – | 0.1 | – | 0.1 | > 100
CCC1CCCCN1S(=O)(=O)c1ccc(NC(=O)c2cc(C(F)(F)F)cn2C)cc1 (centres unmarked) [15e, S(=O)(=O)(N1C(CC)CCCC1)c1ccc(NC(=O)c2n(C)cc(C(F)(F)F)c2)cc1] | 0.087 | 0.0871 | 0.0869 | 0.086 | > 300
Cn1nc(C(F)(F)F)cc1C(=O)Nc1ccc(S(=O)(=O)c2ccccc2O)cc1 [3c, S(=O)(=O)(c1c(O)cccc1)c1ccc(NC(=O)c2n(C)nc(C(F)(F)F)c2)cc1] | 4.5 | 4.51 | 4.5 | 4.5 | 75
CC1CCCC(C)N1S(=O)(=O)c1ccc(NC(=O)c2cc(C(F)(F)F)cn2C)cc1 (centres unmarked) [15d, S(=O)(=O)(N1C(C)CCCC1C)c1ccc(NC(=O)c2n(C)cc(C(F)(F)F)c2)cc1] | 0.014 | 0.014 | 0.014 | 0.014 | > 300

SMILES | IC50 (MeV [1]; Figure 7A source data) [µM] | IC50 (MeV [1]; [4]) [µM] | IC50 (MeV [2]) [µM] | EC50 (MeV [2]) [µM] | CC50 [3] [µM]
Cn1cc(C(F)(F)F)cc1C(=O)Nc1ccc(S(=O)(=O)N2CCCC2C(=O)O)cc1 (centres unmarked) [15i, S(=O)(=O)(N1C(C(=O)O)CCC1)c1ccc(NC(=O)c2n(C)cc(C(F)(F)F)c2)cc1] | 23 | 23 | 23 | 23 | > 300
Cn1cc(C(F)(F)F)cc1C(=O)Nc1ccc(S(=O)(=O)N2CCC[C@@H]2C(=O)OC(=O)c2ccccc2)cc1 [15h, S(=O)(=O)(N1[C@@H](C(=O)OC(=O)c2ccccc2)CCC1)c1ccc(NC(=O)c2n(C)cc(C(F)(F)F)c2)cc1] | 14 | 14 | 14 | 14 | > 100
CCOC(=O)CCC1CCCCN1S(=O)(=O)c1ccc(NC(=O)c2cc(C(F)(F)F)nn2C)cc1 (centres unmarked) [2i, S(=O)(=O)(N1C(CCC(=O)OCC)CCCC1)c1ccc(NC(=O)c2n(C)nc(C(F)(F)F)c2)cc1] | 6.7 | 6.71 | 6.69 | 6.6 | > 100
Cn1cc(C(F)(F)F)cc1C(=O)Nc1ccc(S(=O)(=O)N2CCCCCCC2)cc1 [15g, S(=O)(=O)(N1CCCCCCC1)c1ccc(NC(=O)c2n(C)cc(C(F)(F)F)c2)cc1] | 0.045 | 0.0451 | 0.045 | 0.045 | > 300
Cn1nc(C(F)(F)F)cc1C(O)Cc1ccc(S(=O)(=O)N2CCCC2)cc1 (centres unmarked) [MS-27, S(=O)(=O)(N1CCCC1)c1ccc(CC(O)c2n(C)nc(C(F)(F)F)c2)cc1] | 41 | 41 | 41 | 41 | > 300
COCOCC1CCCCN1S(=O)(=O)c1ccc(NC(=O)c2cc(C(F)(F)F)nn2C)cc1 (centres unmarked) [1a, S(=O)(=O)(N1C(COCOC)CCCC1)c1ccc(NC(=O)c2n(C)nc(C(F)(F)F)c2)cc1] | 1.5 | 1.5 | 1.5 | 1.5 | > 100
CC(C)N(C(C)C)S(=O)(=O)c1ccc(NC(=O)c2cc(C(F)(F)F)cn2C)cc1 [15o, S(=O)(=O)(N(C(C)C)C(C)C)c1ccc(NC(=O)c2n(C)cc(C(F)(F)F)c2)cc1] | 0.53 | 0.531 | 0.529 | 0.52 | > 300
CC1CCN(S(=O)(=O)c2ccc(NC(=O)c3cc(C(F)(F)F)cn3C)cc2)CC1 [15c, S(=O)(=O)(N1CCC(C)CC1)c1ccc(NC(=O)c2n(C)cc(C(F)(F)F)c2)cc1] | 0.035 | 0.0351 | 0.035 | 0.035 | > 300
CCCN(CCC)S(=O)(=O)c1ccc(NC(=O)c2cc(C(F)(F)F)cn2C)cc1 [15p, S(=O)(=O)(N(CCC)CCC)c1ccc(NC(=O)c2n(C)cc(C(F)(F)F)c2)cc1] | 0.19 | 0.19 | 0.19 | 0.19 | > 300
Cn1nc(C(F)(F)F)cc1C(=O)Nc1ccc(S(=O)(=O)N2CCC[C@@H]2C(=O)O)cc1 [AS-105, S(=O)(=O)(N1[C@@H](C(=O)O)CCC1)c1ccc(NC(=O)c2n(C)nc(C(F)(F)F)c2)cc1] | 23 | 23 | 23 | 23 | > 300
Cn1cc(C(F)(F)F)cc1C(=O)Nc1ccc(S(=O)(=O)N2CCC(C(F)(F)F)CC2)cc1 [15k, S(=O)(=O)(N1CCC(C(F)(F)F)CC1)c1ccc(NC(=O)c2n(C)cc(C(F)(F)F)c2)cc1] | 0.02 | 0.02 | 0.02 | 0.02 | 159
Cn1cc(C(F)(F)F)cc1C(=O)Nc1ccc(S(=O)(=O)N2CCCCCC2)cc1 [15f, S(=O)(=O)(N1CCCCCC1)c1ccc(NC(=O)c2n(C)cc(C(F)(F)F)c2)cc1] | 0.005 | 0.005 | 0.005 | 0.005 | > 300
CCOC(=O)C=CC1CCCCN1S(=O)(=O)c1ccc(NC(=O)c2cc(C(F)(F)F)nn2C)cc1 (centres unmarked) [2g, S(=O)(=O)(N1C(C=CC(=O)OCC)CCCC1)c1ccc(NC(=O)c2n(C)nc(C(F)(F)F)c2)cc1] | 6.8 | 6.81 | 6.8 | 6.8 | > 100
Cn1nc(C(F)(F)F)cc1C(=O)Nc1ccc(S(=O)(=O)N2CCCCC2)cc1 [AS-136a, S(=O)(=O)(N1CCCCC1)c1ccc(NC(=O)c2n(C)nc(C(F)(F)F)c2)cc1] | 0.014 | 0.014 | 0.014 | 0.014 | > 300
CCn1nc(C(F)(F)F)cc1C(=O)Nc1ccc(S(=O)(=O)N2CCCCC2C)cc1 (centres unmarked) [9a, S(=O)(=O)(N1C(C)CCCC1)c1ccc(NC(=O)c2n(CC)nc(C(F)(F)F)c2)cc1] | 0.055 | 0.0551 | 0.055 | 0.055 | 30
